Laboratory results reported in ChEMBL document CHEMBL3045939, “Synthesis and evaluation of fused pyrimidine derivatives as anti-inflammatory, antiproliferative and antimicrobial agents” (Med Chem Res, 2012).
Converted amounts (≈) assume the structure as drawn. Each block holds one molecule with its values, some of them ahead of it.

Key:
[1] = tested on: Staphylococcus aureus; test: Antimicrobial activity against Staphylococcus aureus ATCC 25923 assessed as reduction in log10 CFU/ml at MIC after 6 hr by time kill study relative to control; type: functional; parameters: scale not given: the % may be the effect or the level left
[2] = tested on: HeLa; test: Cytotoxicity against Homo sapiens (human) HeLa cells after 24 hr by MTT assay; type: functional, cell-based
[3] = tested on: Candida albicans; test: Antimicrobial activity against Candida albicans ATCC 24433 assessed as reduction in log10 CFU/ml at MIC after 4 hr by time kill study relative to control; type: functional; parameters: scale not given: the % may be the effect or the level left
[4] = tested on: Candida albicans; test: Antimicrobial activity against Candida albicans ATCC 24433 assessed as reduction in log10 CFU/ml at MIC after 24 hr by time kill study relative to control; type: functional; parameters: scale not given: the % may be the effect or the level left
[5] = tested on: Staphylococcus aureus; test: Antimicrobial activity against Staphylococcus aureus ATCC 25923 after 24 hr by broth micro dilution assay; type: functional; conditions: ATCC 25923, 24 h
[6] = Cytotoxicity against Homo sapiens (human) Chang cells after 24 hr by MTT assay; type: functional, cell-based
[7] = tested on: Candida albicans; test: Antimicrobial activity against Candida albicans ATCC 24433 after 48 hr by broth micro dilution assay; type: functional; conditions: ATCC 24433, 48 h
[8] = tested on: Pseudomonas aeruginosa; test: Antimicrobial activity against Pseudomonas aeruginosa ATCC 27853 assessed as reduction in log10 CFU/ml at MIC after 12 hr by time kill study relative to control; type: functional; parameters: scale not given: the % may be the effect or the level left
[9] = tested on: Rattus norvegicus; test: Anti-inflammatory activity in Rattus norvegicus Wistar albino (rat) assessed as carrageenan-induced paw volume at 100 mg/kg, po administered 1 hr prior to carrageenan-challenge measured at 5 hr (reference value: 1.24 +/- 0.0754 mm3); type: functional
[10] = tested on: HEp-2; test: Cytotoxicity against Homo sapiens (human) Hep2 cells after 24 hr by MTT assay; type: functional, cell-based; conditions: HEp-2, 24 h
[11] = tested on: Rattus norvegicus; test: Anti-inflammatory activity in Rattus norvegicus Wistar albino (rat) assessed as carrageenan-induced paw volume at 100 mg/kg, po administered 1 hr prior to carrageenan-challenge measured at 4 hr (reference value: 1.2825 +/- 0.0862 mm3); type: functional
[12] = tested on: Pseudomonas aeruginosa; test: Antimicrobial activity against Pseudomonas aeruginosa ATCC 27853 assessed as reduction in log10 CFU/ml at MIC after 6 hr by time kill study relative to control; type: functional; parameters: scale not given: the % may be the effect or the level left
[13] = tested on: Rattus norvegicus; test: Anti-inflammatory activity in Rattus norvegicus Wistar albino (rat) assessed as carrageenan-induced paw volume at 100 mg/kg, po administered 1 hr prior to carrageenan-challenge measured at 1 hr (reference value: 1.2075 +/- 0.0405 mm3); type: functional
[14] = tested on: Candida albicans; test: Antimicrobial activity against Candida albicans ATCC 24433 assessed as reduction in log10 CFU/ml at MIC after 12 hr by time kill study relative to control; type: functional; parameters: scale not given: the % may be the effect or the level left
[15] = tested on: Aspergillus flavus; test: Antimicrobial activity against Aspergillus flavus ATCC 15517 assessed as reduction in log10 CFU/ml at MIC after 12 hr by time kill study relative to control; type: functional; parameters: scale not given: the % may be the effect or the level left
[16] = tested on: Staphylococcus aureus; test: Antimicrobial activity against Staphylococcus aureus ATCC 25923 assessed as reduction in log10 CFU/ml at MIC after 4 hr by time kill study relative to control; type: functional; parameters: scale not given: the % may be the effect or the level left
[17] = tested on: Candida albicans; test: Antimicrobial activity against Candida albicans ATCC 24433 assessed as reduction in log10 CFU/ml at MIC after 6 hr by time kill study relative to control; type: functional; parameters: scale not given: the % may be the effect or the level left
[18] = tested on: Escherichia coli; test: Antimicrobial activity against Escherichia coli ATCC 25922 assessed as reduction in log10 CFU/ml at MIC after 2 hr by time kill study relative to control; type: functional; parameters: scale not given: the % may be the effect or the level left
[19] = tested on: Aspergillus flavus; test: Antimicrobial activity against Aspergillus flavus ATCC 15517 after 48 hr by broth micro dilution assay; type: functional; conditions: ATCC 15517, 48 h
[20] = tested on: Escherichia coli; test: Antimicrobial activity against Escherichia coli ATCC 25922 after 24 hr by broth micro dilution assay; type: functional; conditions: ATCC 25922, 24 h
[21] = tested on: Escherichia coli; test: Antimicrobial activity against Escherichia coli ATCC 25922 assessed as reduction in log10 CFU/ml at MIC after 4 hr by time kill study relative to control; type: functional; parameters: scale not given: the % may be the effect or the level left
[22] = tested on: Escherichia coli; test: Antimicrobial activity against Escherichia coli ATCC 25922 assessed as reduction in log10 CFU/ml at MIC after 12 hr by time kill study relative to control; type: functional; parameters: scale not given: the % may be the effect or the level left
[23] = tested on: Rattus norvegicus; test: Anti-inflammatory activity in Rattus norvegicus Wistar albino (rat) assessed as carrageenan-induced paw volume at 100 mg/kg, po administered 1 hr prior to carrageenan-challenge measured at 2 hr (reference value: 1.4175 +/- 0.1931 mm3); type: functional
[24] = tested on: Candida albicans; test: Antimicrobial activity against Candida albicans ATCC 24433 assessed as reduction in log10 CFU/ml at MIC after 2 hr by time kill study relative to control; type: functional; parameters: scale not given: the % may be the effect or the level left
[25] = tested on: Aspergillus flavus; test: Antimicrobial activity against Aspergillus flavus ATCC 15517 assessed as reduction in log10 CFU/ml at MIC after 2 hr by time kill study relative to control; type: functional; parameters: scale not given: the % may be the effect or the level left
[26] = tested on: Escherichia coli; test: Antimicrobial activity against Escherichia coli ATCC 25922 assessed as reduction in log10 CFU/ml at MIC after 6 hr by time kill study relative to control; type: functional; parameters: scale not given: the % may be the effect or the level left
[27] = tested on: Pseudomonas aeruginosa; test: Antimicrobial activity against Pseudomonas aeruginosa ATCC 27853 assessed as reduction in log10 CFU/ml at MIC after 24 hr by time kill study relative to control; type: functional; parameters: scale not given: the % may be the effect or the level left
[28] = tested on: Aspergillus flavus; test: Antimicrobial activity against Aspergillus flavus ATCC 15517 assessed as reduction in log10 CFU/ml at MIC after 6 hr by time kill study relative to control; type: functional; parameters: scale not given: the % may be the effect or the level left
[29] = tested on: Pseudomonas aeruginosa; test: Antimicrobial activity against Pseudomonas aeruginosa ATCC 27853 after 24 hr by broth micro dilution assay; type: functional; conditions: ATCC 27853, 24 h
[30] = tested on: Aspergillus flavus; test: Antimicrobial activity against Aspergillus flavus ATCC 15517 assessed as reduction in log10 CFU/ml at MIC after 24 hr by time kill study relative to control; type: functional; parameters: scale not given: the % may be the effect or the level left
[31] = tested on: Pseudomonas aeruginosa; test: Antimicrobial activity against Pseudomonas aeruginosa ATCC 27853 assessed as reduction in log10 CFU/ml at MIC after 2 hr by time kill study relative to control; type: functional; parameters: scale not given: the % may be the effect or the level left
[32] = tested on: Aspergillus flavus; test: Antimicrobial activity against Aspergillus flavus ATCC 15517 assessed as reduction in log10 CFU/ml at MIC after 4 hr by time kill study relative to control; type: functional; parameters: scale not given: the % may be the effect or the level left
[33] = tested on: Staphylococcus aureus; test: Antimicrobial activity against Staphylococcus aureus ATCC 25923 assessed as reduction in log10 CFU/ml at MIC after 12 hr by time kill study relative to control; type: functional; parameters: scale not given: the % may be the effect or the level left
[34] = tested on: Rattus norvegicus; test: Anti-inflammatory activity in Rattus norvegicus Wistar albino (rat) assessed as carrageenan-induced paw volume at 100 mg/kg, po administered 1 hr prior to carrageenan-challenge measured at 3 hr (reference value: 1.225 +/- 0.0484 mm3); type: functional
[35] = tested on: Staphylococcus aureus; test: Antimicrobial activity against Staphylococcus aureus ATCC 25923 assessed as reduction in log10 CFU/ml at MIC after 24 hr by time kill study relative to control; type: functional; parameters: scale not given: the % may be the effect or the level left
[36] = tested on: Pseudomonas aeruginosa; test: Antimicrobial activity against Pseudomonas aeruginosa ATCC 27853 assessed as reduction in log10 CFU/ml at MIC after 4 hr by time kill study relative to control; type: functional; parameters: scale not given: the % may be the effect or the level left
[37] = tested on: Staphylococcus aureus; test: Antimicrobial activity against Staphylococcus aureus ATCC 25923 assessed as reduction in log10 CFU/ml at MIC after 2 hr by time kill study relative to control; type: functional; parameters: scale not given: the % may be the effect or the level left
[38] = tested on: Escherichia coli; test: Antimicrobial activity against Escherichia coli ATCC 25922 assessed as reduction in log10 CFU/ml at MIC after 24 hr by time kill study relative to control; type: functional; parameters: scale not given: the % may be the effect or the level left
[39] = tested on: Rattus norvegicus; test: Anti-inflammatory activity in Rattus norvegicus Wistar albino (rat) assessed as inhibition of carrageenan-induced paw edema at 100 mg/kg, po administered 1 hr prior to carrageenan-challenge measured at 2 hr relative to control; type: functional

SMILES: O=c1c2cc(Cl)ccc2nc(-c2ccccc2)n1-c1ccc(F)cc1
Activity [1]: 100% | IC50 [2]: < 25 µg/mL | Activity [3]: 66.7% | Activity [4]: 100% | MIC [5]: 0.39 µg/mL (≈ 1.11 µM) | IC50 [6]: 16.6 µg/mL (≈ 47.3 µM) | MIC [7]: 1.56 µg/mL (≈ 4.45 µM) | Activity [8]: 100% | Activity [9]: 1.21 mm3 | IC50 [10]: 10.8 µg/mL (≈ 30.7 µM) | Activity [11]: 1.275 mm3 | Activity [12]: 100% | Activity [13]: 1.22 mm3 | Activity [14]: 100% | Activity [15]: 66.7% | Activity [16]: 66.7% | Activity [17]: 100% | Activity [18]: 33.3% | MIC [19]: 6.25 µg/mL (≈ 17.8 µM) | MIC [20]: 0.39 µg/mL (≈ 1.11 µM) | Activity [21]: 66.7% | Activity [22]: 100% | Activity [23]: 1.2675 mm3 | Activity [24]: 44.4% | Activity [25]: 11.1% | Activity [26]: 100% | Activity [27]: 100% | Activity [28]: 88.9% | MIC [29]: 0.78 µg/mL (≈ 2.22 µM) | Activity [30]: 100% | Activity [31]: 66.7% | Activity [32]: 22.2% | Activity [33]: 100% | Activity [34]: 1.21 mm3 | Activity [35]: 100% | Activity [36]: 66.7% | Activity [37]: 33.3% | Activity [38]: 100%

SMILES: O=c1c2cc(Cl)ccc2nc(-c2ccccc2)n1-c1cccc(Cl)c1
IC50 [2]: < 25 µg/mL | MIC [5]: 3.12 µg/mL (≈ 8.5 µM) | IC50 [6]: < 6.25 µg/mL | MIC [7]: > 100 µg/mL | Activity [9]: 1.125 mm3 | IC50 [10]: < 6.25 µg/mL | Activity [11]: 1.0575 mm3 | Activity [13]: 1.1325 mm3 | MIC [19]: > 100 µg/mL | MIC [20]: 6.25 µg/mL (≈ 17 µM) | Activity [23]: 1.0625 mm3 | MIC [29]: 25 µg/mL (≈ 68.1 µM) | inhibition in vivo at 100 mg/kg [39]: 86.8% | Activity [34]: 1.06 mm3

MIC [5]: 1.56 µg/mL (≈ 4.76 µM) | MIC [7]: 50 µg/mL (≈ 153 µM) | MIC [19]: 100 µg/mL (≈ 305 µM) | MIC [20]: 3.12 µg/mL (≈ 9.52 µM) | MIC [29]: 6.25 µg/mL (≈ 19.1 µM)
SMILES: CN(C)CCn1c(-c2ccccc2)nc2ccc(Cl)cc2c1=O
IC50 [2]: > 200 µg/mL | IC50 [6]: 33.4 µg/mL (≈ 102 µM) | Activity [9]: 1.215 mm3 | IC50 [10]: 20.5 µg/mL (≈ 62.5 µM) | Activity [11]: 1.165 mm3 | Activity [13]: 1.1825 mm3 | inhibition in vivo at 100 mg/kg [39]: 88.4% | Activity [34]: 1.1875 mm3

SMILES: O=c1c2cc(Cl)ccc2nc(-c2ccccc2)n1-c1ccc(Cl)cc1
IC50 [2]: < 25 µg/mL | MIC [5]: 3.12 µg/mL (≈ 8.5 µM) | IC50 [6]: 6.25 µg/mL (≈ 17 µM) | MIC [7]: > 100 µg/mL | Activity [9]: 1.1825 mm3 | IC50 [10]: < 25 µg/mL | Activity [11]: 1.1425 mm3 | Activity [13]: 1.135 mm3 | MIC [19]: > 100 µg/mL | MIC [20]: 12.5 µg/mL (≈ 34 µM) | Activity [23]: 1.11 mm3 | MIC [29]: 12.5 µg/mL (≈ 34 µM) | Activity [34]: 1.23 mm3

SMILES: CC(C)Cc1ccc(C(C)C(=O)O)cc1 (centres undefined) [IBUPROFEN]
inhibition in vivo at 100 mg/kg [39]: 65.3%
